# Reference: US20110071124A1, “Compounds that Inhibit Production of sAPPB and AB and Uses Thereof” (The Trustees of Columbia University in the City of New York, priority 2008, published 2011)
# Assays:
# [1] = system: sAPPβ (BACE1 cleavage of SEAP-APPwt) in SY5Y-BACEGFP-SEAPAPPwt cells; assay: cell-based BACE1 assay (sAPPβ modified ELISA); conditions: for IC50: 12 concentrations 0.1 nM to 30 μM, 96-well format (FIG. 8), read-out: cell-based IC50 (sAPPβ), 12-point dose-response
# Protocol: FIG. 1. An sAPPβ assay utilized to identify inhibitors of BACE1. The assay utilizes SY5Y cells stably overexpressing BACE-GFP and SEAP-APPwt. Cells are incubated with a candidate compound for 6 hours prior to harvesting media. BACE1-mediated cleavage of APP results in the release of sAPPβ into the media. α-secretase, a competing enzyme that is non-amyloidogenic, also cleaves APP to release […]. Using an sAPPβ-specific antibody (sβwt), SEAP-sAPPβ is specifically captured in a modified ELISA assay. Detection is achieved by addition of the fluorescent alkaline phosphatase substrate, 4-methylumbelliferyl phosphate (4-MUP).
# FIG. 13. […] Compounds were tested in SY5Y-BACEGFP-SEAPAPPwt cells using the cell-based BACE1 assay. Select compounds were also investigated for Aβ-lowering effect using a commercial Aβ ELISA kit (BioSource). All compounds were tested at 8 concentrations (30, 10, 3, 1, 0.3, 0.1, 0.03, and 0.01 μM), and data points were analyzed with Origin software and fitted using a logistic model for IC50 determination.
# As described in the Examples below, and depicted in FIG. 1, an sAPPβ ELISA assay may comprise cells, for example, SY5Y cells, transfected with a BACE1 reporter construct, such as a GFP-tagged BACE1 (BACE-GFP), and a wild type APP reporter construct, such as a secreted alkaline phosphatase (SEAP)-tagged wild type APP (SEAP-APPwt). BACE1 cleavage of the reporter-tagged APP (e.g. SEAP-APPwt) may result in secretion into the media of SEAP-tagged sAPPβ, which may be collected and specifically captured using an sAPPβ cleavage site-specific antibody (e.g. stβwt). Following washing, a substrate may be used, for example, the fluorescent alkaline phosphatase substrate 4-methylumbelliferyl phosphate (4-MUP), to detect the captured SEAP-sAPPβ.
# A cell-based modified ELISA assay for measuring sAPPβ, the secreted ectodomain of β-amyloid precursor protein (APP) following β-secretase (BACE1) cleavage, was used to identify a class of compounds that interfered with the first step of sAPPβ generation. This assay has been described in International Application PCT/US2007/015938 (Published as International Publication No. WO 08/008463), which is herein incorporated in its entirety for all purposes.
# The SY5Y-BACEGFP-SEAPAPPwt cell based assay was developed to discover novel small molecule modulators of BACE1 activity. SY5Y cells were stably transfected with GFP-tagged BACE1 (BACE-GFP) and secreted alkaline phosphatase (SEAP)-tagged wildtype APP (SEAP-APPwt). BACE1 cleavage of SEAP-APPwt results in secretion into the media of SEAP-tagged sAPPβ, which is collected and specifically captured using an sAPP0 cleavage site-specific antibody (sβwt). After washing, the fluorescent alkaline phosphatase substrate 4-methylumbelliferyl phosphate (4-MUP) is used to detect the captured SEAP-sAPPβ (FIG. 1).
# The 15 LDDN compounds selected based on their 3-point dose-response profile were tested at 12 concentrations (ranging from 0.1 nM to 30 μM) in the cell-based BACE1 assay. The assay was conducted in 96-well format to maximize the Z′ factor. Compounds were characterized in duplicate cell plates, each containing 12 doses of compound in triplicate. Cell viability was measured at 6 and 24 hours using Promega's Cell Titer-Glo kit according to the manufacturer's protocol. The dose-response curves for sAPPβ reduction were plotted using Origin software and fitted using a logistic model for IC50 determination.
# 27 structural analogs of LDN-0057228 were synthesized and tested using the cell-based BACE1 assay in SY5Y-BACEGFP-SEAPAPPwt cells (FIG. 13). 4 analogs, in addition to the parent compound, were also assessed for Aβ40 lowering activity using a commercial Aβ kit (BioSource). Because LDN-0057228 resembles CNS monoamine transporter inhibitors, this analog series was given the designation “CNS.” LDN-0057228 gave an unexpectedly low potency (IC50˜20 μM for both sAPPβ and Aβ40 reduction) compared to the ˜7 μM potency obtained using the same compound in FIG. 8.
# [2] = system: SY5Y-BACEGFP-SEAPAPPwt cells; conditions: tagged-triazine hits, 10 μM
# Protocol: Of the 147 hits selected during the primary screen, 139 were retested in a 3-point dose-response (10, 2, 0.2 μM) confirmatory screen. BACE1 assay was performed as described, and cell viability was determined by Cell Titer AQeous One cell proliferation assay (Promega). Representative data from four compounds are shown. Data points represent mean±s.d. of four determinations.
# The primary screen for the nearly 3,000-compound tagged-triazine library was conducted in 96-well format by hand. Compounds were supplied in powder form in 96-well polypropylene plates. The compounds were first dissolved in DMSO to generate 10 mM stock plates, then stamped onto new polypropylene plates to make 1 mM working stock solution. For assay, 1 mM working stock solution was diluted 1:100 into cell culture media for a final concentration of 10 μM. […] Negative (DMSO) and positive (BACE inhibitor IV at 10 μM) controls were included on every screening plate in triplicate for quality control and calculation of Z′ factors.
# The 144 hits from the primary screen were rescreened in triplicate at 10 μM to confirm the activity and to assess cytotoxicity.
# Of the 147 hits from the primary screen, 139 were retested for 3-point dose-response at 10, 2, and 0.2 μM concentrations in quadruplicate. […] The compounds were simultaneously evaluated for cytotoxicity using the Cell Titer AQueous One cell proliferation assay (Promega). […]
# [3] = target: T1, purified recombinant β-secretase (BACE1) (Homo sapiens, UniProt P56817); assay: BACE1 FRET enzymatic assay (Invitrogen); format: biochemical; conditions: for dose-dependent inhibition of β-secretase: 3 concentrations (0.1, 1, and 10 μM); for IC50: 12 doses, read-out: enzymatic IC50 (FRET-based BACE1 assay)
# T1 construct: purchased Invitrogen
# T1 sequence (P56817 46-501): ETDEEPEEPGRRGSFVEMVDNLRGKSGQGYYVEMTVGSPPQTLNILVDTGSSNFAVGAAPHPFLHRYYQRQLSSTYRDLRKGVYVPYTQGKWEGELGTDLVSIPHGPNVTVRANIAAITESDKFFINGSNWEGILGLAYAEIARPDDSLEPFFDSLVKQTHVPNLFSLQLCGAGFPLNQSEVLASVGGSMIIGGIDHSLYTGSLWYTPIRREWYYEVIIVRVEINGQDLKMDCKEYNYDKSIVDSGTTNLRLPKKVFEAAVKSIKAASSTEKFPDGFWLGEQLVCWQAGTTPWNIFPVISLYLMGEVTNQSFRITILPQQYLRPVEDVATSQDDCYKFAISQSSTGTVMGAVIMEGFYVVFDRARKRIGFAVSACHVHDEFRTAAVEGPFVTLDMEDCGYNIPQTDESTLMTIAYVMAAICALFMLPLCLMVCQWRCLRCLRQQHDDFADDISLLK
# Description: FIG. 10. 4 compounds reduce BACE1 activity in an enzymatic assay. To further classify the small molecule hits, a FRET-based BACE1 enzymatic assay (Invitrogen) was used to identify potential direct BACE1 inhibitors.
# In other non-limiting embodiments, the effective amount of at least one compound of Formulas I-VII, and/or a compound depicted in FIG. 19, may be correlated with the compound's ability to inhibit the enzymatic activity of a BACE1 enzyme. The compound's BACE1 inhibitory effect may be assayed, for example, through use of a BACE1 FRET Assay kit (Invitrogen Corp., Carlsbad, Calif., U.S.A.), wherein the fluorescence resonance energy transfer (FRET)-based assay measures the cleavage by purified recombinant β-secretase of a peptide substrate corresponding to the BACE1 cleavage site of Swedish mutant APP. In such an assay, a greater reduction in fluorescence in the reaction mixture following incubation with a compound of the invention compared to a control cell line not contacted with the compound is correlative with the compound's therapeutic efficacy.
# Because the cell-based BACE1 assay has the potential to uncover direct as well as indirect inhibitors of β-secretase, a commercial BACE1 enzymatic assay was employed to classify the small molecule hits. The BACE1 FRET Assay kit was purchased from Invitrogen and used according to the manufacturer's protocol. This fluorescence resonance energy transfer (FRET)-based assay measures the cleavage by purified recombinant β-secretase of a peptide substrate corresponding to the BACE1 cleavage site of Swedish mutant APP. The 15 LDDN hits were first tested at 3 concentrations (0.1, 1, and 10 μM) to determine if there is a dose-dependent inhibition of β-secretase.
# [4] = fluorescent readout interference: BACE1 substrate standard (cleaved peptide) without BACE1 enzyme; conditions: highest of 12 concentrations
# Protocol: Because the enzymatic assay is performed with compound in the reaction mixture (in contrast to the cell-based BACE1 assay, where the compound is washed away after antibody-mediated specific capture of sAPPβ), it is conceivable that the compound itself may interfere with the fluorescent readout of the enzymatic BACE1 assay. To explore this possibility, BACE1 substrate standard (cleaved peptide, supplied in the assay kit) was incubated with 12 concentrations of LDN-0040630, LDN-0089308, LDN-0096529, and LDN-0091841 in the absence of BACE1 enzyme.
# [5] = 10 μM, triplicate rescreen of tagged-triazine hits
smiles,measurement,setting,value
NCCOCCOCCNC(=O)c1ccc(CNc2nc(NCC3CCCCC3)nc(N3CCCCC3)n2)cc1 [AM-D-E4],increase in sAPPβ,[1]; [5],36%
same,effect on cell viability,[2],did not affect cell viability
Oc1cc(-c2ccccc2)nn1-c1nc2ccccc2[nH]1 [LDN-0089308],IC50,[1],3050 nM
same,dose-dependent inhibition of β-secretase,[3],exhibited a dose-dependent effect
same,IC50,[3],2140 nM
same,maximal inhibition of the fluorescence signal in the absence of BACE1 enzyme,[4],25%
COc1ccccc1C(=O)Nc1nc2ccccc2n1CCOc1ccccc1 [LDN-0091841],IC50,[1],2610 nM
same,dose-dependent inhibition of β-secretase,[3],exhibited a dose-dependent effect
same,IC50,[3],5150 nM
same,maximal inhibition of the fluorescence signal in the absence of BACE1 enzyme,[4],25%
NCCOCCOCCNc1nc(N2CCCC2)nc(N2CCN(c3ccc([N+](=O)[O-])cc3)CC2)n1 [TG-CD-D7],inhibition of sAPPβ,[1]; [5],43%
same,effect on cell viability,[2],did not affect cell viability
